According to PMC9884808, “Pharmacokinetics, tissue distribution, and antitumor activity of a novel compound, NY-2, in non-small cell lung cancer” (Frontiers in Pharmacology, 2023):

Assays:
[1] = Pharmacokinetics in rats after tail vein injection; format: in vivo, Sprague-Dawley rats; conditions: for Cmax / half-life / MRT last / AUC(0-inf) / AUC(0-t): male, Sprague-Dawley, plasma; for MRT last: read-out: MRT0-t; for AUC(0-inf) / AUC(0-t): 6 mg/kg
Source text: We used the online ADME prediction tool Swiss AMDE (http://www.swissadme.ch/index.php) (SwissADME, 2017) to analyze the physicochemical descriptors and ADME parameters of NY-2 and ZLDI-8, to predict their pharmacokinetic properties, drug-like nature, and medicinal chemistry. […] Male Sprague-Dawley rats weighing 240 ± 20 g were purchased from Liaoning Changsheng Biotechnology Co., Ltd. (Liaoning, China, animal license #SCXK-2015-0001). Rats were used for the tissue distribution and pharmacokinetics experiments because of their larger body fluid volume. The rats were fasted for 12 h before the experiment but allowed to drink water freely. Animals were anesthetized with 4% chloral hydrate (0.5 mL/100 g), the total blood volume was collected from the abdominal aorta and quickly dispensed into heparinized EP tubes prepared in advance. The rats were euthanized after blood collection was completed. Plasma samples were subjected to a protein precipitation method for the quantitative analysis of ZLDI-8 and NY-2 by LC-MS/MS (API 3200MD, AB Sciex, United States). The samples were injected into the ionization source by the auto-sampler. A series of standard solutions of ZLDI-8 were prepared with final concentrations of 20, 50, 100, 250, 500, 1000, and 1500 ng/mL; and NY-2 was prepared with final concentrations of 100, 200, 500, 800, 1200, 1600, and 2000 ng/mL. The linear equation and correlation coefficient (r) of the regression curve were calculated from these concentrations and the corresponding absorption data. The specificity, lower limit of quantification (LLOQ), linear range, precision, accuracy, matrix effects, extraction recovery, stability of analytes during the whole process of storage, as well as treatment in a biological matrix and solution were determined to verify the reliability of the compound concentrations in vivo.
The plasma concentration-time concentration data of ZLDI-8 and NY-2 at different times were fitted by DAS2.0 pharmacokinetics software and the drug-time curve was drawn. The drug-time curves of the two compounds were compared and simulated, and a two-compartment model was selected to calculate the pharmacokinetic parameters using the statistical moment algorithm. The peak value (Cmax), half-life (t1/2), area under the curve (AUC0-t and AUC0-∞), plasma clearance rate (CL), mean retention time (MRT), and other parameters of the test data were expressed as mean ± SD. Statistical analyses were performed using GraphPad Prism 5 (GraphPad Software, San Diego, CA, United States), and all experiments were repeated at least three times. […] The experimental results are presented as mean ± SD or mean ± SEM, and significant differences are defined as p ≤ .05.
Plasma samples obtained after the SD rat tail vein injection of ZLDI-8 and NY-2 were processed and analyzed by HPLC-MS/MS, and the measured peak areas of ZLDI-8 and NY-2 were compared with the internal standard peak areas. The accompanying standard curves were used to calculate the plasma drug concentrations of each rat at different time points from the measured values. The plasma concentration-time data of ZLDI-8 and NY-2 at different times were fitted by DAS2.0 pharmacokinetic software, and the pharmacokinetic outcomes of the two compounds were obtained according to the two-compartment model and the pharmacokinetic parameters are shown in Table 2. The average plasma concentration-time curve after intravenous injection of 6 mg/kg compound ZLDI-8 and NY-2 was obtained by plotting the plasma concentrations against time.

T47D = experiment: MTT cell viability assay; format: cell-based, human; conditions: Homo sapiens, T47D breast cancer cells
Procedure: The human colorectal cancer cell lines, HCT116 and LoVo, the breast cancer cell line, T47D, the hepatocellular carcinoma cell line, HepG2, the normal human liver cell line, HL7702, human umbilical vein endothelial cells (HUVECs), and the non-small cell lung cancer cell lines, A549, H1993, HCC827, H460, were purchased from the American Type Culture Collection (Manassas, VA, United States). Cell lines were cultured in the recommended RPMI-1640 medium (AE24464298, Hyclone, United States) and DMEM medium (AE29422278, Hyclone, United States) supplemented with 10% fetal bovine serum (FBS; JC63470, FB15015, Clark, United States) with 1% penicillin-streptomycin. Cells were maintained in an incubator at 37°C with 5% CO2 (HF90,Sanyo, Japan) and passaged every 48–72 h, after detaching with 0.25% trypsin (Sigma, United States). The compounds ZLDI-8 and NY-1 to -15 were synthesized in the laboratory of Dr. Huaiwei Ding in Shenyang Pharmaceutical University, and verified by high-performance liquid chromatography (purity >95%) for use in experiments (Supplementary Figure S1). Paclitaxel was purchased from MedChemExpress (HY-B0015, 99.97% purity, United States).
Cell viability was measured by the MTT assay. HCT116, HL7702, A549, H1993, HCC827, and H460 cells were dispensed into 96-well plates at a density of 1 × 10^5 cells/mL. After 24–48 h incubation, cells were treated with the compounds at different concentrations for the indicated periods. An assay kit (WLA073, Wanlei Co., Liaoning, China), was used according to the manufacturer’s instructions to measure LDH activity, The absorbance at 450 nm was measured with a microplate reader (Elx-800, Bio-Rad, China).
The preliminary antitumor activity of the series of ZLDI-8 derivatives, NY-1 to -15 was screened by the MTT cell viability assay. […] The antitumor activity of NY-2 on HCT116 cells was concentration- and time-dependent, and slightly better than that of the original compound, ZLDI-8.

[2] = intravenous, rat, tail vein injection 6 mg/kg, mean ± SD, n = 6
[3] = iv, rat, tail vein injection 6 mg/kg, mean ± SD, n = 6
[4] = rat, iv, intravenous injection 6 mg/kg
[5] = rat, iv, tail vein injection 6 mg/kg, mean ± SD, n = 6

| SMILES | Cmax [1, 2] | Cmax [1, 3] | half-life [1, 3] | MRT last [1, 3] | AUC(0-inf) [1, 4] | AUC(0-t) [1, 4] | AUC(0-inf) [1, 5] | AUC(0-t) [1, 5] | MRT0-t of NY-2 relative to ZLDI-8 (printed: lower) ([1]; rat, 6 mg/kg iv) | plasma clearance (CL) of NY-2 as share of ZLDI-8's ([1]; rat, 6 mg/kg iv) | t1/2 of NY-2 relative to ZLDI-8 (longer) ([1]; rat, 6 mg/kg iv) | CLZ rate of NY-2 as fraction of that of ZLDI-8 ([1]; rats) | IC50 (T47D) |
| --- | --- | --- | --- | --- | --- | --- | --- | --- | --- | --- | --- | --- | --- |
| Cc1c(C=C2C(=O)NC(=S)NC2=O)c2ccccc2n1CCOc1ccc(F)cc1 [NY-2] | 2750 ng/mL | 2750 ± 1110 ng/mL | 129 ± 37.2 min | 64.2 ± 9.6 min | 402 ng·h/mL | 370 ng·h/mL | 402 ± 130 ng·h/mL | 370 ± 111 ng·h/mL | 3.5 times | 22.2% | approximately 3.6 fold | 1/5 | 34.7 µM |
| Cc1ccc(OCCn2c(C)c(C=C3C(=O)NC(=S)NC3=O)c3ccccc32)c(C)c1 [ZLDI-8, reference compound] | 337 ng/mL | 337 ± 19.4 ng/mL | 35.4 ± 15.6 min | 18.6 ± 1.2 min | 85.2 ng·h/mL | 58.8 ng·h/mL | 85.2 ± 26.3 ng·h/mL | 58.8 ± 4.62 ng·h/mL | – | – | – | – | 29.1 µM |
